The source of these data is article PMC5130197 (PLoS ONE, 2016).

Structures are written as SMILES. Where “and” joins values, the source holds several entries; their conditions need not be identical. Identical values can stand only once. Entries after “also recorded” stand apart in the source; their conditions may differ. Counter-ions that a name gives are not always drawn. Like-named read-outs stand apart in the source and are kept apart here.

The subject of data set [1] is EBOV/Kik (Ebola virus Kikwit variant). It counts as cell-based.
Data set [2] relates to Ebola virus disease. The settings on record: human, in vivo; cited from earlier work.
The test system of data set [3] is EBOV-eGFP. The settings on record: cited from earlier work.
For data set [4], the system named is EBOV/Kik (Ebola virus Kikwit variant). The settings on record: cited from earlier work.
Data set [5] deals with EBOV-eGFP. It counts as cell-based, Ebola virus.
Data set [6] relates to Vero E6, Hep G2, HeLa, Huh 7 cells.
For data set [7], the system named is EBOV/Mak (Ebola virus Makona variant). It counts as cell-based.
A short description of data set [8]: in vivo. The settings on record: Hartley, guinea pig, po, 60 mg/kg; for AUC(0-inf): AUCinf (h·ng/ml); for AUC(0-t): AUClast (h·ng/ml); for Cmax: Cmax (ng/ml).
For data set [9] the following is noted: both, Hartley, guinea pig, in vivo, po, 60 mg/kg.
For data set [10], the system named is human MDMs.

What is called IC25 is the concentration needed for an effect of 25%. Usually Tmax stands for the time from dosing to the highest level. In general, AUC(0-inf) refers to total exposure, with the tail of the curve extrapolated. High values mean more exposure, low ones less exposure. The AUC(0-t) is the area under the concentration-time curve up to a stated or last time point. Lower therefore signals less exposure. As a reminder, the Cmax is the maximum level reached in the sampled fluid or tissue.

Regarding `Nc1ccn([C@@H]2CS[C@H](CO)O2)c(=O)n1` [Lamivudine], in [1], the “antiviral activity against EBOV/Kik” value is “no detectable antiviral activity”. The IC50 in [1] (read-out: IC50) was over 320 µM. Also, the patients successfully treated in data set [2] is reported as 13 out of 15. Besides, in [3], the IC25 was 43.13 µM and the “inhibition of viral replication (maximum)” value was at most 45%. The IC50 in [4] was over 320 µM. The “anti-EBOV activity against EBOV-eGFP” value in [5] was “None of these compounds showed any anti-EBOV activity”. Moreover, the cytotoxicity entry in data set [6] is “minimal cytotoxicity”. For the same compound, in [7], the anti-EBOV activity result is “No significant anti-EBOV activity”, the “antiviral activity against EBOV/Mak” value is listed as “did not show antiviral activity; also recorded: did not demonstrate any antiviral activity”, the “antiviral activity against EBOV/Mak infection in MDMs” value is “did not demonstrate any antiviral activity” and the “antiviral activity with extended drug pre-treatment” value was “did not improve”. Moreover, the “viral inhibition (maximum achieved)” value in [7] (320 µM) is on record as at most 30%. For the same compound, the IC50 in [7] (read-out: IC50) is over 320 µM. For the same compound, the Tmax in [8] (both, time to reach peak plasma concentrations) is at most 1 h. In [8] (female), this compound showed an AUC(0-inf) of 12600 ng·h/mL, an area under the curve AUC(0-t) of 14600 ng·h/mL and a Cmax of 4110 ng/mL. Besides, in [8] (female, Tmax (hr)), the Tmax turned out to be 1 h. In [8] (male), the AUC(0-inf) turned out to be 16800 ng·h/mL, the AUC(0-t) was determined as 15500 ng·h/mL and the Cmax was 4560 ng/mL. In data set [8] (male, Tmax (hr)), the time to peak (Tmax) came to 1 h. In data set [9], the “AUCinf higher in male compared with female guinea pigs” value is given as “about 34%” and the “time of small second peak of plasma concentration” value is 4 to 6 h.

As for `CN(C)CCOc1ccc(/C(=C(/CCCl)c2ccccc2)c2ccccc2)cc1` [Toremifene, Toremifene citrate], the IC50 was 2.2 to 9.9 µM in [1] (read-out: IC50s (range over cell lines)); ~25 µM and 18.3 µM in [4]; 1.2 ± 0.1 µM in data set [7] (read-out: IC50); 2.1 to 4.5 µM in data set [7] (read-out: IC50s (range) in MDMs). The “doses at which cytotoxicity increased” value in data set [10] was at least 10 µM. For the same compound, the “antiviral activity against EBOV/Mak” value in data set [7] is “strong antiviral activity”.

For `Cc1cn([C@H]2C[C@H](N=[N+]=[N-])[C@@H](CO)O2)c(=O)[nH]c1=O` [Zidovudine], in data set [1], the “antiviral activity against EBOV/Kik” value was “no detectable antiviral activity”. Further, the IC50 in [1] (read-out: IC50) is over 320 µM. The IC50 in data set [4] was over 320 µM. The “anti-EBOV activity against EBOV-eGFP” value in data set [5] was “None of these compounds showed any anti-EBOV activity”. For the same compound, the cytotoxicity result in [6] is recorded as “minimal cytotoxicity”. In addition, in data set [7], the “antiviral activity against EBOV/Mak” value is recorded as “did not show antiviral activity” and the “antiviral activity against EBOV/Mak infection in MDMs” value is on record as “did not demonstrate any antiviral activity”.
